Measurements taken from PMC9143821, “Design and Synthesis of a Novel 4-aryl-N-(2-alkoxythieno [2,3-b]pyrazine-3-yl)-4-arylpiperazine-1-carboxamide DGG200064 Showed Therapeutic Effect on Colon Cancer through G2/M Arrest” (Pharmaceuticals, 2022).
Where a SMILES comes first, the peptide text is derived from it. The star is where a group is joined. Cbz = O=C(OCc1ccccc1)*

What was measured:
SW620 = test: SRB assay, colon cancer cell growth inhibition; assay type: cell-based; conditions: Homo sapiens, SW-620, 48 h
Procedure: (§1) A series of 4-phenyl-N-(thieno[2,3-b]pyrazin-3-yl)piperazine-1-carboxamides derivatives 7a–7i were tested for the colon cancer cell growth inhibition effect using the SRB assay (Table 2). […] Compounds 7a and 7b, containing chlorine at the C6 position of thieno[2,3-b]pyrazine ring, have weaker anticancer activity than its proton-containing derivatives 7c–7i. On the other hand, 7c has shown higher inhibition activity than 7d with methyl substituents at the C3 and C5 positions of the phenyl ring. […] Substitutions with one fluorine atom in the phenyl ring could not improve the inhibition effect of the compounds 7g–7h.
(§2) The HCT116, HCT8, KM12, HCT15, HT29, COLO-205, SW620 cell line was obtained from the National Cancer Institute (Material Transfer Agreement number: 2702–09). DLD1 cell line was obtained from the Korean cell line bank. Cells were cultured in complete Roswell Park Memorial Institute (RPMI) 1640 medium (Hyclone, South Logan, UT, USA) containing 10% fetal bovine serum (Hyclone, South Logan, UT, USA) in an atmosphere of 5% CO2 and 100% humidity at 37 °C. A small interfering RNA (siRNA) duplex targeting human c-Jun and FBXW7 (Genolution, Seoul, Korea) were introduced into cells using Lipofector-EXT (AptaBio, Yongin, Korea), according to the manufacturer’s instructions. As negative controls, cells were incubated with Lipofector-EXT (AptaBio, Yongin, KOR) and a negative siRNA (Genolution, Seoul, Korea).
(§3) Cells (100 μL containing 5000–10,000 cells/well) were incubated in 96 well microtiter plates. After 24 h, drugs were added (100 μL) to each well and the cultures were incubated for 48 h at 37 °C. The cells were then fixed in TCA (50 μL per well). The plates were incubated for a minimum of 1 h or a maximum of 3 h at 4 °C. The liquid was removed from the plate, which was then rinsed five times with water and allowed to dry at room temperature (rt) for approximately 12–24 h. The fixed cells were stained with 100 μL Sulforhodamine B (SRB) solution for 5 min at rt. After staining, the plate was washed three times with 1% glacial acetic acid and dried at rt for approximately 12–24 h. The SRB was then solubilized in 10 mM Tris buffer, and the absorbance was read at 515 nm. The effect of the drugs was expressed as GI50 (50% growth inhibition).

HT29 = test: SRB assay, colon cancer cell growth inhibition; assay type: cell-based; conditions: Homo sapiens, HT-29, 48 h
Procedure: as §1, §2, §3

HCT116 = test: SRB assay, colon cancer cell growth inhibition; assay type: cell-based; conditions: Homo sapiens, HCT-116
Procedure: as §1, §2, §3

KM12 = test: SRB assay, colon cancer cell growth inhibition; assay type: cell-based; conditions: Homo sapiens, 48 h
Procedure: as §1, §2, §3

Colo205 = test: SRB assay, colon cancer cell growth inhibition; assay type: cell-based; conditions: Homo sapiens, COLO 205, 48 h
Procedure: as §1, §2, §3

HCT8 = test: SRB assay, colon cancer cell growth inhibition; assay type: cell-based; conditions: Homo sapiens, HCT-8, 48 h
Procedure: as §1, §2, §3

HCT15 = test: SRB assay, colon cancer cell growth inhibition; assay type: cell-based; conditions: Homo sapiens, HCT-15, 48 h
Procedure: as §1, §2, §3

[1] = Pharmacokinetics in SD rats; assay type: in vivo; conditions: male, Sprague-Dawley, rat, plasma
Procedure: Sprague–Dawley rats (adult males, 250–300 g) were fasted overnight, and the femoral vein (for iv administration of the compound) and jugular vein (for blood sampling) of each rat were cannulated with polyethylene tubing. The selected compounds dissolved in 30% polyethylene glycol (PEG) in saline were administered either intravenously or orally. At various time points after administration, blood samples (0.5 mL) were collected from the jugular vein, transferred to heparin-coated tubes, centrifuged to separate off the plasma. The plasma was stored at −80 °C until assayed. Compound concentrations in plasma were determined by LC/MS/MS analysis (API4000 mass spectrometer, Applied Biosystem, Waltham, MA, USA). Pharmacokinetic parameters were analyzed using the WinNonlin software program. The area under the curve (AUC) was calculated using the trapezoidal rule extrapolated to infinity. The terminal elimination half-life, systemic clearance, and volume of distribution at steady state were determined. The extent of absolute oral bioavailability (F) was estimated by comparing the AUC values after intravenous and oral administration of the compounds.

FBXW7/c-Jun interaction = test: Immunoprecipitation, ubiquitination and FBXW7/c-Jun interaction; assay type: cell-based, human; conditions: HCT116 and DLD1; DGG200064 50 nM 18 h; MG132 10 μM 6 h
Text: To investigate whether the ubiquitination of c-Jun is suppressed through the inhibition of c-Jun and FBXW7 binding by DGG200064, c-Jun immunoprecipitation was done to observe protein–protein interaction (Figure 4). E3 ligase, such as FBXW7, binds the protein to the ubiquitin chain through covalent bonds and rapidly degrades the protein through 26S proteasome. When treated with MG132 as a proteasome inhibitor, the ubiquitination of c-Jun increased compared to both control HCT116 and DLD1 cells. In contrast, the c-Jun ubiquitination was inhibited by DGG200064. The binding between c-Jun and FBXW7 was reduced with DGG200064 treatment. The FBXW7 protein, also known as CDC4, is a component of the SCF complex ubiquitin ligase and is known as a modulator of several substrates including cyclin E, c-Myc, c-Jun, and Notch. To check the selectivity of DGG200064 towards FBXW7 substrates, the change of c-Jun, cyclin E, and c-Myc by DGG200064 was analyzed. […] Cyclin E immunoprecipitation was done to test whether the ubiquitination of cyclin E by FBXW7 is inhibited by DGG200064 in HCT116 (Figure S2b, Supplementary Materials). There were no changes in cyclin E ubiquitination with DGG200064 treatment.
To identified ubiquitination of c-Jun by DGG200064, HCT116 cells were treated with/without MG132 (10 μM) for 6h, DGG200064 (50 nM) for 18 h. The cell lysate was prepared using RIPA buffer for immunoprecipitation. Each lysate was mixed with antibodies (1 μg/mL) of c-Jun or MYC at 4 °C overnight in immunoprecipitation buffer containing 50 mM Tris-Cl,150 mM NaCl, 1 mM EDTA, 0.5% Triton X-100, pH 7.4, and reacted with 10 μL of protein A/G beads UltraLink Resin (50:50 resin: buffer slurry condition) (Peirce, #35133) for 2 h on RT for precipitation. After reaction and centrifugation at 3000 rpm for 3 min, the immunoprecipitated samples were washed with 500 μL of immunoprecipitation buffer by tapping and centrifuged. The washing was repeated five times before western blotting.

[2] = quoted in docking discussion, cell line not stated there (values match HCT116)

Compound	GI50 (SW620)	GI50 (HT29)	GI50 (HCT116; HCT116, SRB, 48 h)	GI50 (KM12)	GI50 (Colo205)	GI50 (HCT8)	GI50 (HCT15)	Cmax ([1]; no unit, species or route stated in b12 (7c value equals SD rats PO of Table 3))	bioavailability ([1]; species and route not stated in b12 (7c value equals SD rats PO of Table 3), read-out: bioavailability (F))	GI50 (HCT116; [2])	c-Jun ubiquitination (FBXW7/c-Jun interaction)
CC(C)C[C@@H](C=O)NC(=O)[C@H](CC(C)C)NC(=O)[C@H](CC(C)C)NC(=O)OCc1ccccc1 [MG132, reference compound] (Cbz-Leu-Leu-Leu-aldehyde)											increased
COc1nc2ccsc2nc1NC(=O)N1CCN(c2cc(C)cc(F)c2)CC1 [Compound 7h, 4-(3-Fluoro-5-methylphenyl)-N-(2-methoxythieno[2,3-b]pyrazin-3-yl)piperazine-1-carboxamide]	0.04 µM	0.029 µM	0.032 µM	0.038 µM	0.028 µM	0.051 µM	0.042 µM				
COc1nc2cc(Cl)sc2nc1NC(=O)N1CCN(c2cc(C)cc(C)c2)CC1 [Compound 7b, N-(6-chloro-2-methoxythieno[2,3-b]pyrazin-3-yl)-4-(3,5-dimethylphenyl)piperazine-1-carboxamide]	0.273 µM	0.342 µM	0.244 µM	0.244 µM	0.9 µM	0.9 µM	0.437 µM				
COc1cc(OC)cc(N2CCN(C(=O)Nc3nc4sc(Cl)cc4nc3OC)CC2)c1 [Compound 7a, N-(6-chloro-2-methoxythieno[2,3-b]pyrazin-3-yl)-4-(3,5dimethoxyphenyl)piperazine-1-carboxamide]	0.427 µM	0.408 µM	0.344 µM	0.273 µM	0.173 µM	0.761 µM	0.484 µM			≥ 0.1 µM	
COc1nc2ccsc2nc1NC(=O)N1CCN(c2cc(F)cc(F)c2)CC1 [Compound 7e, 4-(3,5-Difluorophenyl)-N-(2-methoxythieno[2,3-b]pyrazin-3-yl)piperazine-1-carboxamide]	0.288 µM	0.672 µM	0.307 µM	0.426 µM	0.287 µM	0.269 µM	0.507 µM			≥ 0.1 µM	
CCOc1nc2ccsc2nc1NC(=O)N1CCN(c2cc(OC)cc(OC)c2)CC1 [Compound 7i, 4-(3,5-dimethoxyphenyl)-N-(2-ethoxythieno[2,3-b]pyrazin-3-yl)piperazine-1-carboxamide]	0.053 µM	0.035 µM	0.071 µM	0.074 µM	0.035 µM	0.058 µM	0.068 µM				

Now from value to compound, other results behind:

GI50 (SW620)	GI50 (HT29)	GI50 (HCT116; HCT116, SRB, 48 h)	GI50 (KM12)	GI50 (Colo205)	GI50 (HCT8)	GI50 (HCT15)	Cmax ([1]; no unit, species or route stated in b12 (7c value equals SD rats PO of Table 3))	bioavailability ([1]; species and route not stated in b12 (7c value equals SD rats PO of Table 3), read-out: bioavailability (F))	GI50 (HCT116; [2])	Compound	c-Jun ubiquitination (FBXW7/c-Jun interaction)
0.029 µM	0.057 µM	0.045 µM	0.022 µM	0.014 µM	0.039 µM	0.03 µM				COc1cc(F)cc(N2CCN(C(=O)Nc3nc4sccc4nc3OC)CC2)c1 [Compound 7g, 4-(3-Fluoro-5-methoxyphenyl)-N-(2-methoxythieno[2,3-b]pyrazin-3-yl)piperazine-1-carboxamide]	
0.038 µM	0.026 µM	0.033 µM	0.032 µM	0.04 µM	0.059 µM	0.038 µM				COc1nc2ccsc2nc1NC(=O)N1CCN(c2cc(C)cc(C)c2)CC1 [Compound 7d, 4-(3,5-Dimethylphenyl)-N-(2-methoxythieno[2,3-b]pyrazin-3-yl)piperazine-1 carboxamide]	
0.034 µM	0.021 µM	0.0019 µM	0.021 µM	0.028 µM	0.037 µM	0.036 µM	195 ng/mL	21.8%		COc1cc(C)cc(N2CCN(C(=O)Nc3nc4sccc4nc3OC)CC2)c1 [Compound 7f, 4-(3-methoxy-5-methylphenyl)-N-(2-methoxythieno[2,3-b]pyrazin-3-yl)piperazine-1-carboxamide]	
